“Also recorded” adds a separate entry of the source.
How the values were obtained:
[1] = test system: Arabidopsis thaliana plants; assay: SOA1 phenotypic analysis of herbicide-treated Arabidopsis plants (MIC, Tmic, leaf traits); assay type: in vivo; conditions: for Dev. leafCurling / Dev. leafTwisting / Dev. matureLeafAnthocyanins / Dev. matureLeafChlorosis / Dev. matureLeafNecrosis / Dev. newLeafAnthocyanins / Dev. newLeafChlorosis / Dev. newLeafNecrosis / Dev. pointedLeaves: numeric value standardized to mock treated; for Dev. leafWidth: numeric value standardized to the average response for the mock treated tissues; for Symptom Class: three-week-old Arabidopsis plants treated with herbicide, phenotype classes of FIG. 12; for Characteristic symptoms (phenotype): herbicide treated Arabidopsis
Arabidopsis thaliana [2] = assay: MOA1 phenotypic profiling of Arabidopsis sprayed with unknown and commercial herbicides; assay type: in vivo
Arabidopsis thaliana [3] = assay: MOA1 biochemical (metabolite) profiling by LC-MS and GC-MS; conditions: for Stress-related (commonly regulated) metabolites: MOA1, 20 min and 1 hr after spraying
[4] = test system: N-starved Arabidopsis plants; conditions: nitrate addition to N-starved Arabidopsis; cited from earlier work

| Compound | Dev. tMic [1] | Dev. leafCurling [1] | Dev. leafTwisting [1] | Dev. matureLeafAnthocyanins [1] | Dev. matureLeafChlorosis [1] | Dev. matureLeafNecrosis [1] | Dev. newLeafAnthocyanins [1] | Dev. newLeafChlorosis [1] | Dev. newLeafNecrosis [1] | Dev. pointedLeaves [1] | Dev. leafWidth [1] | Characteristic symptoms (phenotype) [1] | further results |
| --- | --- | --- | --- | --- | --- | --- | --- | --- | --- | --- | --- | --- | --- |
| O=C(O)COc1ccc(Cl)cc1Cl [2,4-D] | 2 | 1 | 2 | 1 | 2 | 0 | 0 | 1 | 0 | 0 | −1 |  | Symptom Class [1]: 5 |
| O=C(O)c1cc(Oc2ccc(C(F)(F)F)cc2Cl)ccc1[N+](=O)[O-] [Acifluorfen] | 1 | 1 | 0 | 0 | 0 | 1 | 0 | 0 | 3 | 0 | 0 | Necrotic leaf flecks |  |
| Nc1nc[nH]n1 [Amitrole] | 2 | −1 | 0 | 0 | 3 | 0 | 0 | 4 | 0 | 0 | 2 | leaf bleaching and leaf enlargement | Hierarchical cluster analysis of the eleven phenotypic characteristics / phenotype (Arabidopsis thaliana [2]; Ward's method): exhibited chlorosis and not true bleaching |
| CCNc1nc(Cl)nc(NC(C)C)n1 [Atrazine] | 1 | 1 | 0 | 0 | 1 | 4 | 0 | 1 | 4 | 1 | −1 | rapid and widespread leaf necrosis |  |
| O=C(O)Cn1c(=O)sc2cccc(Cl)c21 [Benazolin] | 2 | 2 | 2 | 0 | 0 | 0 | 0 | 0 | 0 | 0 | −2 |  |  |
| CC(C)N1C(=O)c2ccccc2NS1(=O)=O [Bentazon] | 1 | 2 | 0 | 0 | 2 | 4 | 0 | 2 | 4 | 1 | −2 | rapid and widespread leaf necrosis |  |
| COC(=O)c1cc(Oc2ccc(Cl)cc2Cl)ccc1[N+](=O)[O-] [Bifenox] | 1 | 1 | 0 | 0 | 0 | 1 | 0 | 0 | 3 | 0 | 0 | Necrotic leaf flecks |  |
| CCSC(=O)N(CC(C)C)CC(C)C [Butylate] |  |  |  |  |  |  |  |  |  |  |  |  | Herbicidal phenotype (Arabidopsis thaliana [2]): neither showed a strong herbicidal phenotype; Stress-related (commonly regulated) metabolites (Arabidopsis thaliana [3]): neither butylate nor chlorpropham treatment resulted in many changes |
| CC(C)OC(=O)Nc1cccc(Cl)c1 [Chloropropham] |  |  |  |  |  |  |  |  |  |  |  |  | Herbicidal phenotype (Arabidopsis thaliana [2]): neither showed a strong herbicidal phenotype; Stress-related (commonly regulated) metabolites (Arabidopsis thaliana [3]): neither butylate nor chlorpropham treatment resulted in many changes |
| COc1nc(C)nc(NC(=O)NS(=O)(=O)c2ccccc2Cl)n1 [Chlorsulfuron] | 2 | 1 | 1 | 3 | 2 | 0 | 0 | 2 | 0 | 0 | −1 | anthocyanin accumulation in the older leaves accompanied by chlorosis of the newly emerging leaves |  |
| COc1c(Cl)ccc(Cl)c1C(=O)O [Dicamba] | 2 | 2 | 2 | 0 | 2 | 0 | 0 | 0 | 0 | 0 | −2 |  |  |
| c1cc[n+]2c(c1)-c1cccc[n+]1CC2 [Diquat] | 2 | 2 | 0 | 0 | 1 | 4 | 0 | 1 | 4 | 1 | −2 | rapid and widespread leaf necrosis | Symptom Class [1]: 7 |
| CN(C)C(=O)Nc1ccc(Cl)c(Cl)c1 [Diuron] | 1 | 1 | 0 | 0 | 2 | 4 | 0 | 2 | 4 | 1 | −2 | rapid and widespread leaf necrosis | Symptom Class [1]: 7 |
| CC(C)C1(C)N=C(c2ncccc2C(=O)O)NC1=O (stereo not drawn) [Imazapyr] | 2 | 0 | 0 | 2 | 0 | 0 | 0 | 2 | 0 | 0 | 0 | anthocyanin accumulation in the older leaves accompanied by chlorosis of the newly emerging leaves | Stress-related (commonly regulated) metabolites (Arabidopsis thaliana [3]): Only a few, if any, stress-related metabolites were observed |
| CCc1cnc(C2=NC(C)(C(C)C)C(=O)N2)c(C(=O)O)c1 (stereo not drawn) [Imazethapyr] | 2 | 1 | 1 | 3 | 0 | 0 | 0 | 2 | 0 | 0 | 0 | anthocyanin accumulation in the older leaves accompanied by chlorosis of the newly emerging leaves |  |
| CS(=O)(=O)c1cc(C(F)(F)F)ccc1C(=O)c1cnoc1C1CC1 [Isoxaflutole] |  |  |  |  |  |  |  |  |  |  |  |  | Alpha-tocopherol levels (Arabidopsis thaliana [3]; relative to control, early time points): not significantly changed relative to the control; Tyrosine and phenylalanine levels (Arabidopsis thaliana [3]; relative to control, early time points, 1 hr): up-regulated relative to the control; also recorded: began to accumulate relative to the control after one hour |
| CCc1cccc(C)c1N(C(=O)CCl)C(C)COC (stereo not drawn) [Metolachlor] | 2 | 2 | 1 | 0 | 0 | 3 | 0 | 0 | 3 | 1 | −1 |  |  |
| CSc1nnc(C(C)(C)C)c(=O)n1N [Metribuzin] | 1 | 1 | 0 | 0 | 2 | 4 | 0 | 2 | 4 | 1 | −2 | rapid and widespread leaf necrosis |  |
| O=[N+]([O-])O [Nitrate, nitrate] |  |  |  |  |  |  |  |  |  |  |  |  | Nitrate Regulation of Glutamate synthetase [4]: ↑; Nitrate Regulation of Glutamine synthetase (2) [4]: ↑; Nitrate Regulation of MADs Box (2) [4]: ↓; Nitrate Regulation of MYB transcription factor [4]: ↑; Nitrate Regulation of Malate Dehydrogenase [4]: ↑; Nitrate Regulation of Nitrate transporter [4]: ↑; Nitrate Regulation of Phosphate transporter [4]: ↑; Nitrate Regulation of Transaldolase [4]: ↑; Nitrate Regulation of Transketolase [4]: ↑ |
| CNc1cnn(-c2cccc(C(F)(F)F)c2)c(=O)c1Cl [Norfluazon, norflurazon] |  |  |  |  |  |  |  |  |  |  |  |  | Stress-related (commonly regulated) metabolites (Arabidopsis thaliana [3]): Only a few, if any, stress-related metabolites were observed |
| C[n+]1ccc(-c2cc[n+](C)cc2)cc1 [Paraquat] | 2 | 2 | 0 | 0 | 1 | 4 | 0 | 1 | 4 | 1 | −1 | rapid and widespread leaf necrosis | Symptom Class [1]: 7 |

— US20040019430A1, “Methods and systems for analyzing complex biological systems” (priority 2001, published 2004)
